We go through two compounds from patent US11505556B2, “Halogenated derivatives of morphinans and uses thereof” (Xalud Therapeutics, Inc., priority 2017, dated 2022).

The subject of series [1] is bone fracture pain, paw withdrawal threshold. As to the kind of experiment: Mouse bone fracture model, morphine potentiation.
From the text: Male adult C57BL6 mice, 8-10 weeks old, were anaesthetized with isoflurane mixed with oxygen throughout the surgical procedure. Animals were placed on a thermo-blanket temperature control system. The left knee area was disinfected with povidone/iodine-soaked cotton. A 0.5 cm incision was made on the knee, exposing the front area of the knee. A 27-gauge sterile needle was inserted into the tibial bone medullar canal to secure the fractured bone. The left tibia bone was gently broken using a pair of cushioned pliers. A single dose of antibiotic (Amoxipen 100 mg/kg, IP) was administered for prevention of infection after surgery. The animal was placed in a temperature-controlled recovery chamber until fully awake before being placed in a plastic cage bedded with clean, soft sawdust, with food and water easily accessible. The condition of the animals was closely monitored and recorded. All compounds, dissolved in normal saline, were dosed intraperitoneally in a volume of 5 ml/kg. PWT testing, as described above, was performed at 1, 2, and 4 hours.
In both cases, morphine was dosed at 2 mg/kg IP.
The test system of series [2] is CCI neuropathic pain (mechanical allodynia). The series is described as follows: Rat CCI model, oral and subcutaneous phases (Study R042). The format is in vivo. The protocol: Rat chronic constriction injury model-Oral and subcutaneous (+)-NTX and XT-203: An efficacy study was conducted in the rat chronic constriction injury (CCI) model (Study R042). The study design comprised two phases. A five-day period of oral (PO) dosing and behavioral testing was followed by a five-day period of subcutaneous (SC) dosing, with a two-day washout period between these periods. Dosing on each day was performed three times a day (TID). Behavioral testing for mechanical allodynia was performed on the first and fifth days of dosing, at three times on those days: before the first dose of the day, 30 minutes after the first dose of the day, and 30 minutes after the second dose of the day. Thus, day 5 testing is designated as pre5.1 (before the first dose of the day), 5.1 (fifth day, after first dose) or 5.2 (fifth day, after second dose). On day 5 of the subcutaneous dosing phase, a second testing period was introduced 60 minutes after the second dose. (+)-NTX (6, 18, and 60 mg/kg) and XT-203. Mechanical allodynia was tested manually, using the Chaplan up-down testing method. The results are shown in FIGS. 10A and 10B, with the oral (PO) phase presented as the first pair of graphs. After the two-day washout, the subcutaneous (SC) phase was carried out with the results shown in the graphs at FIGS. 10C and 10D.
The CCI model was well established in this study, with allodynic response thresholds between 2 and 3 grams (presurgical baseline thresholds at 15 g, not shown). […] This is especially remarkable given the extremely rapid metabolism and pharmacokinetics of (+)-NTX (see FIG. 9). Here, the dampening of efficacy due to lack of significant amounts of parent compound is particularly evident. Thus, the appropriate dose-ranging conditions in animal models should reflect (+)-NTX serum levels during efficacy testing, to match pharmacokinetics with pharmacodynamics. […] Efficacy is only observed after the first dose on day 5. Thus, changes designed to improve compound stability do provide improved efficacy.

The subject of series [3] is Mouse hepatocytes. As to the kind of experiment: Hepatocyte elimination of parent compound.
The subject of series [4] is surgical pain (paw incision), paw withdrawal threshold. As to the kind of experiment: Mouse paw incision model, morphine potentiation.
Method: Manual testing with von Frey hairs was performed at the times indicated in the graphs. The animals were placed in individual Perspex boxes on a raised metal mesh for at least 40 min before the test. A series of graduated von Frey hairs (0.07, 0.16, 0.4, 0.6, and 1.0 g) were applied to the plantar surface of the left paw, in sequence. Each von Frey hair was applied 10 times on a one-sec-on-one-sec-off protocol, with each hair slightly bent. A paw withdrawal upon this hind-paw stimulation for a given von Frey hair registering 5 responses out of 10 trials was recorded the paw withdrawal threshold (PWT). A baseline PWT was determined each day for 3 days before surgery. […] In addition, the PWT was determined before dosing and 1, 2, and 4 hours after dosing.
In both cases, morphine was dosed at 1 mg/kg IP.
Series [5] deals with TLR4 (LPS-stimulated NO production, BV-2 mouse microglia cell line). The series is described as follows: NO assay: inhibition of LPS-induced NO production in BV-2 microglia (iNOS cellular). The format is cell-based. As to conditions: for inhibition of NO production from LPS-stimulated BV2 cells: FIGS. 8B to 8D. The text has this: NO assay: Microglia are the resident cells of the innate immune system in the central nervous system, and TLR4 is primarily expressed by microglia rather than astrocytes or neurons in the CNS. Given this expression profile, the BV-2 mouse microglia cell line was used as the model system of microglia, as these cells recapitulate many of the responses of primary microglia with high fidelity. TLR4 activation induces the downstream production of the inflammatory factor NO, which contributes to the development of neuropathic pain and drug addiction. BV-2 murine microglia were grown in supplemented DMEM (including 10% FBS, 50 unit mL^−1 penicillin, 50 μg·mL^−1 streptomycin). BV-2 cells were detached from the flask by trypsin digestion when ˜80% confluence was reached. Cells were seeded at a density of 4×10^4 cells per well in 96-well plates. After overnight incubation, media was aspirated and changed to DMEM media without FBS. Cells were then treated with LPS (200 ng/ml) and different concentrations of the testing compounds. After 24 h treatment, 100 μL of supernatant media was removed after cells were treated for 24 h and added to flat black 96-well microfluor plates (Thermo Scientific, MA, USA). Subsequently, 10 μL of 2, 3-diaminonaphthalene (0.05 mg·mL^−1 in 0.62 M HCl) was added to each well and incubated for 15 min. The reaction was quenched by addition of 5 μL of 3 M NaOH and the plate was read on a Beckman Coulter DTX880 reader (Fullerton, Calif., USA) with excitation at 360 nm and emission at 430 nm.
N chain NTX: This experimentation involved an in vitro assay where mouse BV2 cells were treated with LPS, which results in the release of nitric oxide (NO). Blockade of TLR4 activity results in reduced NO production. Therefore, IC50 values were determined for test compounds that antagonize TLR4 activity. A series of test compounds were prepared, with different N-alkyl chains replacing the cyclopropyl methyl found in naltrexone. Cell viability was also measured by a standard assay, e.g., measurement of the release of cytoplasm-resident enzymes in the tissue culture supernatant or media to detect cell loss/lysis/rupture. A dose-inhibition curve was generated by testing the TLR4 antagonist compound for the ability to block LPS-stimulated iNOs induction. In FIG. 7, the inhibition levels across a range of doses are graphed, along with a regression curve. The IC50 value—50% inhibition level—is also provided, graphed against the length of the alkyl chain. Note that with longer N-alkyl chain the IC50 was reduced, although cell viability became problematic.
FIGS. 8B to 8D show the results of the inhibition of NO production from LPS-stimulated BV2 cells using the assay described above.

Series [6] relates to bone fracture pain, paw withdrawal threshold. As to the kind of experiment: Mouse bone fracture model, intraperitoneal. The settings on record: for effect on PWT in mouse fracture pain model: IP, morphine 1, 2, 3, 5 mg/kg, XT-203 6, 10, 18, 30 mg/kg, (+)-NTX 6, 18, 30, 60 mg/kg, dose-dependent; for adverse effects during observation: mouse fracture model, all dose groups. The format is in vivo. The text has this:
Each group had n=10 mice.

Series [7] is described as follows: in vitro. The settings on record: rat, cultured hepatocytes.
Series [8] is described as follows: in vitro. The settings on record: mouse, hepatocytes.
Series [9] in a line: in vitro. As to conditions: monkey, cultured hepatocytes.

In the case of `O=C1CC[C@]2(O)[C@@H]3Cc4ccc(O)c5c4[C@]2(CCN3CC2CC2)[C@@H]1O5` [(+)-naltrexone, reference compound], the “adverse effects during observation” value in series [1] is “No significant adverse effects”. The “efficacy on mechanical allodynia, medium and high doses” value in series [2] ((+)-NTX 18 and 60 mg/kg TID, PO d1, SC d1, SC d5 panels) was “some efficacy”. Besides, the “glucuronidation of parent compound” value in series [3] (mouse hepatocytes, compared with XT-203) was “significantly higher glucuronidation”. Further, in series [4] ((+)-NTX 18 mg/kg IP alone), the “PWT of the ipsilateral hind-paw, 2 hours post-dosing” value came to 0.22 ± 0.050 g and the “PWT of the ipsilateral hind-paw, 4 hours post-dosing” value worked out at 0.14 ± 0.32 g. In [4] ((+)-NTX 18 mg/kg IP alone, baseline 0.11±0.015 g), the “PWT of the ipsilateral hind-paw, 1 hour post-dosing” value amounted to 0.31 ± 0.056 g. The “inhibition of NO production from LPS-stimulated BV2 cells” value in [5] was “good viability and inhibition”. In series [5] (LPS (200 ng/ml), 24 h, BV-2 cells, Table 3), this compound came in with a concentration for half-maximal inhibition (IC50) of 50 to 60 µM. The compound further returned a concentration for half-maximal inhibition (IC50) in series [5] (Table 6, unit inferred, footnote: Indicator of TL4 antagonism) of 50 to 60 µM. Moreover, in series [6], the “effect on PWT in mouse fracture pain model” value is “increased the PWT” and the “adverse effects during observation” value is “No significant adverse effects”.
Turning to `COc1ccc2c3c1O[C@@H]1C(F)CCC4[C@H](C2)N(CC2CC2)CC[C@]341` (some centres unmarked) [XT-203], the half-life in [7] was 13.2 min; in series [8] it was roughly 27 min; in series [9], 13.7 min. Also, the “adverse effects during observation” value in series [1] and in [6] was “No significant adverse effects” throughout. In series [2] (XT-203 18 mg/kg SC TID), the “reversal of allodynia at pre5.1 (before first dose of day 5)” value is “does not show reversal of allodynia”. In [2] (XT-203 18 mg/kg SC TID, after the first dose on day 5), the “efficacy on mechanical allodynia, subcutaneous, day 5” value was “some significant efficacy”. In addition, the “Parent compound hepatocyte elimination half-life, Mouse” value in [3] (cultured mouse hepatocytes) is 26.28 min. Moreover, the “PWT, 2 hours after dosing” value in series [4] (XT-203 10 mg/kg IP alone) is 0.25 ± 0.059 g. The “PWT, 4 hours after dosing” value in series [4] (XT-203 10 mg/kg IP alone) was 0.09 ± 0.012 g. Moreover, the “PWT, 1 hour after dosing” value in series [4] (XT-203 10 mg/kg IP alone, 0.11±0.015 g before dosing) worked out at 0.32 ± 0.058 g. Besides, the “inhibition of NO production from LPS-stimulated BV2 cells” value in series [5] was “good viability and inhibition”. For the same compound, the IC50 is 30 µM in series [5] (Mus musculus, Microglia, Table 6, unit inferred, footnote: Indicator of TL4 antagonism) and 30 to 50 µM in [5] (Mus musculus, LPS (200 ng/ml), 24 h, BV-2 cells, Table 3). Also, the “effect on PWT in mouse fracture pain model” value in [6] is recorded as “increased the PWT”.

For orientation: IC50 means the midpoint of a concentration-inhibition curve. A low value points to inhibition by little substance. By half-life is commonly meant the time needed for the level to fall by half in the phase considered. Read a high half-life as slow loss.
